Data from patent US12077503B2, “Substituted cyclic amides and their use as herbicides” (FMC CORPORATION, priority 2015, dated 2024).

Columns and labels:
Assay in all cases: Test C postemergence
Format in all cases: in vivo
Conditions in all cases: scale 0 to 100, 0 no effect, 100 complete control
[1] = test system: Galium (catchweed bedstraw, Galium aparine)
Method in brief: (§1)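 After treatment with surfactant-containing formulations, either preemergence to seeds in loam-sand soil or postemergence to potted seedlings at 2–18 cm, plants were kept 13–15 d in a greenhouse. Observers then compared them with controls and assigned ratings, 0 signifying no effect and 100 complete control.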

Kochia (Kochia scoparia) = test system: Kochia (Kochia scoparia)
Method in brief: as §1

[2] = test system: barnyardgrass (Echinochloa crus-galli)
Method in brief: as §1

[3] = test system: blackgrass (Alopecurus myosuroides)
Method in brief: as §1

corn (Zea mays) = test system: corn (Zea mays)
Method in brief: as §1

[4] = test system: crabgrass, large (large crabgrass, Digitaria sanguinalis)
Method in brief: as §1

[5] = test system: foxtail, giant (giant foxtail, Setaria faberii)
Method in brief: as §1

[6] = test system: johnsongrass (Sorghum halepense)
Method in brief: as §1

[7] = test system: lambsquarters (Chenopodium album)
Method in brief: as §1

[8] = test system: morningglory (Ipomoea coccinea)
Method in brief: as §1

[9] = test system: oat, wild (wild oat, Avena fatua)
Method in brief: as §1

[10] = test system: oilseed rape (Brassica napus)
Method in brief: as §1

[11] = test system: ragweed (common ragweed, Ambrosia elatior)
Method in brief: as §1

[12] = test system: ryegrass, Italian (Italian ryegrass, Lolium multiflorum)
Method in brief: as §1

soybean (Glycine max) = test system: soybean (Glycine max)
Method in brief: as §1

[13] = test system: velvetleaf (Abutilon theophrasti)
Method in brief: as §1

[14] = test system: waterhemp (common waterhemp, Amaranthus rudis)
Method in brief: as §1

[15] = test system: wheat (winter wheat, Triticum aestivum)
Method in brief: as §1

O=C1NCC(c2ccc3c(c2)OC(F)(F)O3)C1C(=O)Nc1cccc(F)c1F (centres unmarked) [Compound 635]
Plant response rating, Galium ([1]; 31 g ai/ha): 50 | Plant response rating, Galium ([1]; 62 g ai/ha): 50 | Plant response rating, Galium ([1]; 125 g ai/ha): 60 | Plant response rating, Galium ([1]; 250 g ai/ha): 55 | Plant response rating, Kochia (Kochia (Kochia scoparia); 31 g ai/ha): 40 | Plant response rating, Kochia (Kochia (Kochia scoparia); 62 g ai/ha): 20 | Plant response rating, Kochia (Kochia (Kochia scoparia); 125 g ai/ha): 50 | Plant response rating, Kochia (Kochia (Kochia scoparia); 250 g ai/ha): 60 | Plant response rating, Barnyardgrass ([2]; 31 g ai/ha): 0 | Plant response rating, Barnyardgrass ([2]; 62 g ai/ha): 10 | Plant response rating, Barnyardgrass ([2]; 125 g ai/ha): 65 | Plant response rating, Barnyardgrass ([2]; 250 g ai/ha): 65 | Plant response rating, Blackgrass ([3]; 31 g ai/ha): 0 | Plant response rating, Blackgrass ([3]; 62 g ai/ha): 0 | Plant response rating, Blackgrass ([3]; 125 g ai/ha): 5 | Plant response rating, Blackgrass ([3]; 250 g ai/ha): 40 | Plant response rating, Corn (corn (Zea mays); 31 g ai/ha): 0 | Plant response rating, Corn (corn (Zea mays); 62 g ai/ha): 0 | Plant response rating, Corn (corn (Zea mays); 125 g ai/ha): 5 | Plant response rating, Corn (corn (Zea mays); 250 g ai/ha): 40 | Plant response rating, Crabgrass, Large ([4]; 31 g ai/ha): 20 | Plant response rating, Crabgrass, Large ([4]; 62 g ai/ha): 60 | Plant response rating, Crabgrass, Large ([4]; 125 g ai/ha): 50 | Plant response rating, Crabgrass, Large ([4]; 250 g ai/ha): 70 | Plant response rating, Foxtail, Giant ([5]; 31 g ai/ha): 15 | Plant response rating, Foxtail, Giant ([5]; 62 g ai/ha): 30 | Plant response rating, Foxtail, Giant ([5]; 125 g ai/ha): 50 | Plant response rating, Foxtail, Giant ([5]; 250 g ai/ha): 60 | Plant response rating, Johnsongrass ([6]; 31 g ai/ha): 0 | Plant response rating, Johnsongrass ([6]; 62 g ai/ha): 0 | Plant response rating, Johnsongrass ([6]; 125 g ai/ha): 5 | Plant response rating, Johnsongrass ([6]; 250 g ai/ha): 5 | Plant response rating, Lambsquarters ([7]; 31 g ai/ha): 75 | Plant response rating, Lambsquarters ([7]; 62 g ai/ha): 80 | Plant response rating, Lambsquarters ([7]; 125 g ai/ha): 75 | Plant response rating, Lambsquarters ([7]; 250 g ai/ha): 85 | Plant response rating, Morningglory ([8]; 31 g ai/ha): 25 | Plant response rating, Morningglory ([8]; 62 g ai/ha): 40 | Plant response rating, Morningglory ([8]; 125 g ai/ha): 45 | Plant response rating, Morningglory ([8]; 250 g ai/ha): 45 | Plant response rating, Oat, Wild ([9]; 31 g ai/ha): 0 | Plant response rating, Oat, Wild ([9]; 62 g ai/ha): 0 | Plant response rating, Oat, Wild ([9]; 125 g ai/ha): 0 | Plant response rating, Oat, Wild ([9]; 250 g ai/ha): 5 | Plant response rating, Oilseed Rape ([10]; 31 g ai/ha): 50 | Plant response rating, Oilseed Rape ([10]; 62 g ai/ha): 45 | Plant response rating, Oilseed Rape ([10]; 125 g ai/ha): 10 | Plant response rating, Oilseed Rape ([10]; 250 g ai/ha): 80 | Plant response rating, Ragweed ([11]; 31 g ai/ha): 25 | Plant response rating, Ragweed ([11]; 62 g ai/ha): 60 | Plant response rating, Ragweed ([11]; 125 g ai/ha): 70 | Plant response rating, Ragweed ([11]; 250 g ai/ha): 80 | Plant response rating, Ryegrass, Italian ([12]; 31 g ai/ha): 0 | Plant response rating, Ryegrass, Italian ([12]; 62 g ai/ha): 0 | Plant response rating, Ryegrass, Italian ([12]; 125 g ai/ha): 15 | Plant response rating, Ryegrass, Italian ([12]; 250 g ai/ha): 20 | Plant response rating, Soybean (soybean (Glycine max); 31 g ai/ha): 0 | Plant response rating, Soybean (soybean (Glycine max); 62 g ai/ha): 0 | Plant response rating, Soybean (soybean (Glycine max); 125 g ai/ha): 5 | Plant response rating, Soybean (soybean (Glycine max); 250 g ai/ha): 10 | Plant response rating, Velvetleaf ([13]; 31 g ai/ha): 0 | Plant response rating, Velvetleaf ([13]; 62 g ai/ha): 0 | Plant response rating, Velvetleaf ([13]; 125 g ai/ha): 10 | Plant response rating, Velvetleaf ([13]; 250 g ai/ha): 30 | Plant response rating, Waterhemp ([14]; 31 g ai/ha): 35 | Plant response rating, Waterhemp ([14]; 62 g ai/ha): 60 | Plant response rating, Waterhemp ([14]; 125 g ai/ha): 55 | Plant response rating, Waterhemp ([14]; 250 g ai/ha): 70 | Plant response rating, Wheat ([15]; 31 g ai/ha): 0 | Plant response rating, Wheat ([15]; 62 g ai/ha): 0 | Plant response rating, Wheat ([15]; 125 g ai/ha): 0 | Plant response rating, Wheat ([15]; 250 g ai/ha): 5

CN1CC(c2ccc(F)c(F)c2)C(C(=O)Nc2ccccc2C(F)(F)F)C1=O (centres unmarked) [Compound 641]
Plant response rating, Galium ([1]; 31 g ai/ha): 40 | Plant response rating, Galium ([1]; 62 g ai/ha): 60 | Plant response rating, Galium ([1]; 125 g ai/ha): 60 | Plant response rating, Galium ([1]; 250 g ai/ha): 65 | Plant response rating, Kochia (Kochia (Kochia scoparia); 31 g ai/ha): 0 | Plant response rating, Kochia (Kochia (Kochia scoparia); 62 g ai/ha): 0 | Plant response rating, Kochia (Kochia (Kochia scoparia); 125 g ai/ha): 0 | Plant response rating, Kochia (Kochia (Kochia scoparia); 250 g ai/ha): 40 | Plant response rating, Barnyardgrass ([2]; 31 g ai/ha): 0 | Plant response rating, Barnyardgrass ([2]; 62 g ai/ha): 10 | Plant response rating, Barnyardgrass ([2]; 125 g ai/ha): 35 | Plant response rating, Barnyardgrass ([2]; 250 g ai/ha): 65 | Plant response rating, Blackgrass ([3]; 31 g ai/ha): 0 | Plant response rating, Blackgrass ([3]; 62 g ai/ha): 0 | Plant response rating, Blackgrass ([3]; 125 g ai/ha): 0 | Plant response rating, Blackgrass ([3]; 250 g ai/ha): 0 | Plant response rating, Corn (corn (Zea mays); 31 g ai/ha): 0 | Plant response rating, Corn (corn (Zea mays); 62 g ai/ha): 0 | Plant response rating, Corn (corn (Zea mays); 125 g ai/ha): 0 | Plant response rating, Corn (corn (Zea mays); 250 g ai/ha): 10 | Plant response rating, Crabgrass, Large ([4]; 31 g ai/ha): 10 | Plant response rating, Crabgrass, Large ([4]; 62 g ai/ha): 50 | Plant response rating, Crabgrass, Large ([4]; 125 g ai/ha): 70 | Plant response rating, Crabgrass, Large ([4]; 250 g ai/ha): 70 | Plant response rating, Foxtail, Giant ([5]; 31 g ai/ha): 0 | Plant response rating, Foxtail, Giant ([5]; 62 g ai/ha): 10 | Plant response rating, Foxtail, Giant ([5]; 125 g ai/ha): 65 | Plant response rating, Foxtail, Giant ([5]; 250 g ai/ha): 80 | Plant response rating, Johnsongrass ([6]; 31 g ai/ha): 0 | Plant response rating, Johnsongrass ([6]; 62 g ai/ha): 0 | Plant response rating, Johnsongrass ([6]; 125 g ai/ha): 0 | Plant response rating, Johnsongrass ([6]; 250 g ai/ha): 0 | Plant response rating, Lambsquarters ([7]; 31 g ai/ha): 5 | Plant response rating, Lambsquarters ([7]; 62 g ai/ha): 15 | Plant response rating, Lambsquarters ([7]; 125 g ai/ha): 5 | Plant response rating, Lambsquarters ([7]; 250 g ai/ha): 30 | Plant response rating, Morningglory ([8]; 31 g ai/ha): 0 | Plant response rating, Morningglory ([8]; 62 g ai/ha): 15 | Plant response rating, Morningglory ([8]; 125 g ai/ha): 35 | Plant response rating, Morningglory ([8]; 250 g ai/ha): 40 | Plant response rating, Oat, Wild ([9]; 31 g ai/ha): 0 | Plant response rating, Oat, Wild ([9]; 62 g ai/ha): 0 | Plant response rating, Oat, Wild ([9]; 125 g ai/ha): 0 | Plant response rating, Oat, Wild ([9]; 250 g ai/ha): 0 | Plant response rating, Oilseed Rape ([10]; 31 g ai/ha): 20 | Plant response rating, Oilseed Rape ([10]; 62 g ai/ha): 45 | Plant response rating, Oilseed Rape ([10]; 125 g ai/ha): 45 | Plant response rating, Oilseed Rape ([10]; 250 g ai/ha): 55 | Plant response rating, Ragweed ([11]; 31 g ai/ha): 0 | Plant response rating, Ragweed ([11]; 62 g ai/ha): 0 | Plant response rating, Ragweed ([11]; 125 g ai/ha): 40 | Plant response rating, Ragweed ([11]; 250 g ai/ha): 30 | Plant response rating, Ryegrass, Italian ([12]; 31 g ai/ha): 0 | Plant response rating, Ryegrass, Italian ([12]; 62 g ai/ha): 0 | Plant response rating, Ryegrass, Italian ([12]; 125 g ai/ha): 10 | Plant response rating, Ryegrass, Italian ([12]; 250 g ai/ha): 10 | Plant response rating, Soybean (soybean (Glycine max); 31 g ai/ha): 0 | Plant response rating, Soybean (soybean (Glycine max); 62 g ai/ha): 0 | Plant response rating, Soybean (soybean (Glycine max); 125 g ai/ha): 5 | Plant response rating, Soybean (soybean (Glycine max); 250 g ai/ha): 15 | Plant response rating, Velvetleaf ([13]; 31 g ai/ha): 40 | Plant response rating, Velvetleaf ([13]; 62 g ai/ha): 40 | Plant response rating, Velvetleaf ([13]; 250 g ai/ha): 50 | Plant response rating, Waterhemp ([14]; 31 g ai/ha): 10 | Plant response rating, Waterhemp ([14]; 62 g ai/ha): 10 | Plant response rating, Waterhemp ([14]; 125 g ai/ha): 25 | Plant response rating, Waterhemp ([14]; 250 g ai/ha): 30 | Plant response rating, Wheat ([15]; 31 g ai/ha): 0 | Plant response rating, Wheat ([15]; 62 g ai/ha): 0 | Plant response rating, Wheat ([15]; 125 g ai/ha): 0 | Plant response rating, Wheat ([15]; 250 g ai/ha): 0
